The values below come from article PMC10303900, “Discovery of a New Chalcone-Trimethoxycinnamide Hybrid with Antimitotic Effect: Design, Synthesis, and Structure—Activity Relationship Studies” (Pharmaceuticals, 2023).

The subject of series [1] is MCF-7. As to the kind of experiment: SRB growth inhibition assay, breast adenocarcinoma cells. The format is cell-based. To be noted: Homo sapiens, MCF7, 48 h. The protocol:
(§1) A sulforhodamine B (SRB) assay was performed to evaluate the in vitro growth inhibitory activity of all synthesized hybrids, as well as intermediates in the human tumor cell lines of melanoma (A375-C5), breast adenocarcinoma (MCF-7), and colorectal carcinoma (HCT116), as well as on the non-tumor Human Pulmonary Alveolar Epithelial cell line (HPAEpiC). The concentration inducing 50% cell growth inhibition (GI50), was calculated. […] The overall results prompt us to further investigate the mechanism behind the cytotoxic activities of compounds 6, 7, and 13 in colorectal tumor cells. Moreover, in silico studies were performed, aiming to screen for drug-likeness.
(§2) A375-C5 (melanoma) and MCF-7 (breast adenocarcinoma) cell lines were obtained from the European Collection of Cell Culture, UK, and were grown in RPMI-1640 medium (Roswell Park Memorial Institute, Biochrom, Cambridge, UK) with 5% inactivated FBS (fetal bovine serum, Biochrom). HCT-116 (colon adenocarcinoma) cells were grown in DMEM medium (Dulbecco’s Modified Eagle’s, Biochrom) with 5% inactivated FBS. The non-tumor human pulmonary alveolar epithelial cells (HPAEpiC) were obtained from ScienCell Research Laboratories and grown in DMEM medium supplemented with 10% FBS and 1% non-essential amino acids (Sigma-Aldrich Co., Saint Louis, MO, USA). All cell lines were maintained in a humidified incubator (Hera Cell, Heraeus, Hanau, Germany) at 37 °C and with 5% CO2, and cell viability was regularly monitored using the exclusion trypan blue dye.
(§3) A total of 5.0 × 10^4 A375-C5, MCF-7, and HCT-116 cells, or 6.0 × 10^4 HPAEpiC cells were seeded in 96-well plates and incubated at 37 °C and 5% CO2 to allow for cell attachment. After 24 h, cells were treated with two-fold serial dilutions of test compounds (0–150 µM), or with DMSO as the compound solvent. In parallel, cells in a time-zero (T0) plate, without treatment, were fixed with 50% (m/v) trichloroacetic acid (TCA, Merck Millipore, Darmstadt, Germany), for 1 h at 4 °C, and then washed with distilled water and left to dry. Forty-eight hours after compound treatment, cells were fixed with 50% TCA and stained with SRB (Sigma-Aldrich Co., Ltd., Gillingham, UK) for 30 min at room temperature, followed by 5 rounds of washing with 1% (v/v) acetic acid (Merck Milli-pore, Darmstadt, Germany). SRB–protein complexes were then solubilized with […] Tris buffer (Sigma-Aldrich Co., Ltd., Gillingham, UK) for 30 min, and the absorbance was measured at 515 nm in a microplate reader (Biotek Synergy 2, BioTek Instruments, Inc., Winooski, VT, USA). A dose-response curve was obtained for each cell line, and the concentration that caused 50% cell growth inhibition (GI50) was calculated.

Series [2] deals with HPAEpiC. As to the kind of experiment: SRB growth inhibition assay, non-tumor pulmonary alveolar epithelial cells. The format is cell-based. Particulars: Homo sapiens, Epithelial cell, 48 h. The procedure: as §1, §2, §3
In series [3] the test system is A375-C5. As to the kind of experiment: Sulforhodamine B (SRB) growth inhibition assay, melanoma cells. The series is classed as cell-based. Particulars: Homo sapiens, 48 h. The procedure:
as §1, §2, §3

The subject of the next series is HCT116 p53−/−. As to the kind of experiment: SRB growth inhibition assay, p53 knocked-out colorectal cells. The series is classed as cell-based, human. Particulars: for GI50: Homo sapiens, HCT-116, Table 2, 48 h. The protocol:
as §3

The test system of series [4] is HCT116 (HCT116 p53+/+). As to the kind of experiment: SRB growth inhibition assay, colorectal carcinoma cells. The series is classed as cell-based. To be noted: Homo sapiens, HCT-116. The protocol: as §1, §2, §3
The subject of series [5] is HCT116 cells. As to the kind of experiment: Mitotic arrest / mitotic index by phase-contrast microscopy. The series is classed as cell-based, human. Particulars: HCT116, 24 h, phase contrast microscopy. The procedure: Disruption of cell cycle progression is considered one of the most common cytotoxic mechanisms of anticancer drugs. Moreover, the antimitotic effect of BP-M345 (2) has been previously reported. Therefore, compounds 6, 7, and 13 were tested for their capability to induce cell cycle arrest. HCT116 cells were exposed for 24 h to the compounds and then analyzed using phase contrast microscopy for morphological changes. Untreated and dimethyl sulfoxide (DMSO; solvent)-treated cells were used as negative controls. Cell exposure to nocodazole, an antimitotic agent, was used as a positive control. […] We thus calculated the mitotic index (MI), and observed a significant increase in MI in 7-treated cells (22.76 ± 4.30%) compared to the untreated (12.68 ± 1.98%) or DMSO-treated (12.81 ± 1.45%) (Figure 4c).
A total of 1.2 × 10^5 HCT-116 cells were grown in six-well dishes and treated for 24 h with 3.26 µM of compound 7. Cells treated with 1 µM nocodazole were used as a positive control for antimitotic activity. Untreated cells and cells treated with DMSO were included to exclude the cytotoxicity of the compound solvent. Mitotic index, and the percentage of mitotic cells over the total cell population were determined via cell-rounding under phase-contrast microscopy from at least ten random microscope fields.
For phase contrast microscopy images, a Nikon TE 2000-U microscope (Nikon, Amsterdam, The Netherlands) with a 10× objective was used, coupled to a DXM1200F digital camera with Nikon ACT-1 software (Melville, NY, USA). For fluorescence images, an Axio Observer Z.1 SD microscope (Carl Zeiss, Germany) was used, coupled to an AxioCam MR3, with the Plan Apochromatic 63×/NA 1.4 objective. The images were processed using ImageJ, version 1.51.

In series [6] the test system is HCT116 cells. As to the kind of experiment: Apoptosis detection via flow cytometry (Annexin V-FITC/PI). The series is classed as cell-based, human. Particulars: HCT116, 48 h, vs untreated or DMSO. The protocol:
Double labeling with annexin V-FITC and propidium iodide dyes was used to detect cells going through apoptotic events, using a flow cytometer in order to obtain insights into the mechanism by which compounds 6, 7, and 13 generate antiproliferative activity against colorectal carcinoma cells. For that, HCT116 cells were exposed to each compound for 48 h.
To evaluate apoptotic cell death, the “Annexin V-FITC Apoptosis Detection Kit” (eBioscience, Vienna, Austria) was used according to the manufacturer’s instructions. Briefly, 1.2 × 10^5 cells/well were seeded into 6-well plates, and 24 h later, cells were treated with compounds 6, 7, and 13. After 48 h, floating and adherent cells were collected, pelleted via centrifugation (1000 rpm, 5 min), and suspended in binding buffer. Annexin V-FITC was added and incubated for 10 min, protected from light. Cells were washed and resuspended in binding buffer, and 20 μg/mL of propidium iodide (PI) was added. Fluorescence was assessed using the BD Accuri™ C6 Plus flow cytometer (BD Biosciences, Qume Drive, San Jose, CA, USA), and the data were analyzed with the BD Accuri TM C6 Plus software (version 1.0.27.1, San Jose, CA, USA). At least 20,000 events per sample were collected.
Background: A flow cytometer gives signals particle by particle.

The target in series [7] is T1, p53–MDM2 interaction (Homo sapiens, UniProt Q00987).
T1 construct: expressed in transfected cells; host or cells: Saccharomyces cerevisiae strain CG379
As to the kind of experiment: Yeast targeted screening assay of p53–MDM2 interaction. Particulars: 10 μM, yeast cell-based assay, data not shown. The procedure: However, since CM-M345 (1) has been previously reported as a p53-MDM2 inhibitor by our research group, the effect of 10 μM of compounds 6, 7, and 13 on the p53–MDM2 interaction was analyzed using yeast cell-based assays.
Saccharomyces cerevisiae (strain CG379) expressing human wt p53 alone and combined with human MDM2 were obtained in previous works. For the expression of human proteins (routinely grown in minimal selective medium), cells were diluted to 0.05 OD600 in selective induction medium containing 2% (w/w) galactose, 1% (w/w) raffinose, 0.7% (w/w) yeast nitrogen base without amino acids from Difco (Quilaban, Sintra, Portugal), and all the amino acids required for yeast growth ([…]) except leucine and tryptophan. Yeast cells were incubated at 30 °C under continuous orbital shaking (200 rpm) with 10 µM compounds or 0.1% DMSO only, for approximately 42 h (time required by the control yeast, co-transformed with the empty vectors and incubated with DMSO only, to achieve 0.4 OD600). Yeast growth was analyzed by counting the number of colony-forming units (CFU) after 2 days of incubation at 30 °C on Sabouraud Dextrose Agar from Liofilchem (Frilabo, Porto, Portugal).

Series [8] has as its system A375-C5, MCF-7 and HCT116 cell lines. As to the kind of experiment: SRB growth inhibition, range over the tumor cell lines of Table 1. Particulars: Homo sapiens; SAR discussion, values of Table 1. The format is cell-based. The procedure: Considering the antiproliferative effects on tumor cells of all the studied compounds (Table 1), some SAR considerations may be undertaken (Figure 2). […] Nevertheless, this effect is not observed for the flavone derivatives 15 and 16. […] Additionally, with the screening of the synthetic intermediates, some conclusions can also be inferred (Figure 2).
as §3

The test system of series [9] is HCT116 (HCT116 p53+/+). Particulars: 48 h, cited from earlier work.
For series [10], the target named is T1, p53–MDM2 interaction. Also on record: method as in doi:10.1016/j.arabjc.2016.04.015. To be noted: ref [16]; cited from earlier work.
Series [11] relates to MCF-7. Particulars: 48 h, cited from earlier work.
In series [12] the test system is HPAEpiC. Also on record: method as in Novais et al. [17]. Particulars: 48 h, non-tumor cells; ref Novais et al. [17]; cited from earlier work.
The next series deals with HFF-1 and HPAEpiC cells. Also on record: method as in PMID 34170069, PMID 34885726. To be noted: fibroblasts HFF-1 and HPAEpiC; ref [12],[17]; cited from earlier work.
The subject of series [13] is A375-C5. Also noted: method as in Novais et al. [17]. Particulars: 48 h; ref Novais et al. [17]; cited from earlier work.
On the set-up of series [14]: method as in PMID 34885726. To be noted: used at 2×GI50; ref [17]; cited from earlier work.
Where [15] appears, read: SRB, 48 h, read-out: GI50 HCT116.
Where [16] appears, read: Table 2, 48 h, read-out: GI50 HCT116 p53+/+.

Structures are written as SMILES. Like-named read-outs stand apart in the source and are kept apart here.

T1 sequence (Q00987 whole entry): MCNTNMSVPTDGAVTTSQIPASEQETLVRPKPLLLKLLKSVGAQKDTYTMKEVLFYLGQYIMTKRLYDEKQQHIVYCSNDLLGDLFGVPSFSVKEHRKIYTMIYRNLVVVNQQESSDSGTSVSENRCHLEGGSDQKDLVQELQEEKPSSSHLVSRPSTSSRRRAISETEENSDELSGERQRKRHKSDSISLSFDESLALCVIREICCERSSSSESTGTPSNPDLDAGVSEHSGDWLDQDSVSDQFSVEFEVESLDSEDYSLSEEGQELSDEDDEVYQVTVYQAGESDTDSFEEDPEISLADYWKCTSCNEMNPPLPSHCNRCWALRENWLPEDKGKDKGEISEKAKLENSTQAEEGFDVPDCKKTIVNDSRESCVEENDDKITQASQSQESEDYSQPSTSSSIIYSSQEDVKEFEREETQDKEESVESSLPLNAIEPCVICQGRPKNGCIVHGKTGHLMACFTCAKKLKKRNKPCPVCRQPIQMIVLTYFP

In the case of `CCCc1c(OCCNC(=O)OC(C)(C)C)ccc(C(=O)/C=C/c2cc(OC)c(OC)c(OC)c2)c1O` [Compound 6, tert-butyl(E)-(2-(3-hydroxy-2-propyl-4-(3-(3,4,5-trimethoxyphenyl)acryloyl)phenoxy)ethyl)carbamate], the GI50 in the series with MCF-7 [1] amounted to 39800 ± 2110 nM; in the series with HPAEpiC [2], 9600 ± 940 nM; in the series on A375-C5 [3], 3610 ± 1110 nM; in the series with HCT116 p53−/− it was 1900 ± 300 nM; with HCT116 (HCT116 p53+/+) [4] (setting [15]), 2810 ± 650 nM; in the series on HCT116 (HCT116 p53+/+) [4] (setting [16]), 2810 ± 650 nM. Also, the GI50 in series [8] is 2810 to 39800 nM. The “SI, selective index (GI50 of HCT116 p53−/−/GI50 of HCT116 p53+/+)” value (from here on “SI, selective index”) in the series with HCT116 p53−/− is 0.68. Besides, in the series with HCT116 cells [5], the “Accumulation of bright and rounded (mitotic) cells” value is “not observed”. Also, in the series with HCT116 cells [6], the “Apoptosis induction (Annexin V-positive cells)” value was “induces apoptotic tumor cell death”. The “Effect on the p53–MDM2 interaction (reversal of the negative growth effect of MDM2 on p53)” value on p53–MDM2 interaction [7] is “none of the tested compounds significantly reversed the negative inhibitory growth effect of MDM2 on p53”.
Consider `CCCc1c(OC)ccc(C(=O)/C=C/c2cc(OC)c(OC)c(OC)c2)c1O` [CM-M345 (1), reference compound], for which the GI50 in the series on HPAEpiC [2] is 6100 ± 660 nM; in the series on A375-C5 [3], 5570 ± 60 nM; in the series on HCT116 (HCT116 p53+/+) [9] (ref Pereira et al. [16]), 2600 ± 200 nM; in the series on MCF-7 [11] (ref Pereira et al. [16]), 2300 ± 100 nM. Further, the “SI, selective index” value in the series on HCT116 p53−/− was determined as 1.31. Also, the “Inhibition of the p53–MDM2 interaction in yeast-based assays” value at p53–MDM2 interaction [10] is reported as “inhibitor of the interaction”.
As for `CCCc1c(OCC(=O)Nc2cc(OC)c(OC)c(OC)c2)ccc(C(=O)/C=C/c2cc(OC)c(OC)c(OC)c2)c1O` [Compound 13, (E)-2-(3-hydroxy-2-propyl-4-(3-(3,4,5-trimethoxyphenyl)acryloyl)phenoxy)-N-(3,4,5-trimethoxyphenyl)acetamide], the GI50 was 18800 ± 3460 nM with MCF-7 [1]; 10800 ± 230 nM in the series with HPAEpiC [2]; 9370 ± 900 nM with A375-C5 [3]; 4100 ± 500 nM in the series on HCT116 p53−/−; 2660 ± 870 nM in the series with HCT116 (HCT116 p53+/+) [4] (setting [15]); 2660 ± 870 nM in the series with HCT116 (HCT116 p53+/+) [4] (setting [16]). In addition, the “SI, selective index” value in the series on HCT116 p53−/− came out at 1.54. In addition, the “Accumulation of bright and rounded (mitotic) cells” value with HCT116 cells [5] was “not observed”. Further, the “Apoptosis induction (Annexin V-positive cells)” value in the series on HCT116 cells [6] is on record as “induces apoptotic tumor cell death”. Besides, the “Effect on the p53–MDM2 interaction (reversal of the negative growth effect of MDM2 on p53)” value at p53–MDM2 interaction [7] is on record as “none of the tested compounds significantly reversed the negative inhibitory growth effect of MDM2 on p53”.
With `COc1cc(/C=C2\COC/C(=C\c3cc(OC)c(OC)c(OC)c3)C2=O)cc(OC)c1OC` [BP-M345 (2)], the GI50 is 1070 ± 160 nM with HPAEpiC [12], 170 ± 10 nM in the series with HCT116 (HCT116 p53+/+) [9] (ref Moreira et al. [12]), 240 ± 10 nM with A375-C5 [13] and 450 ± 60 nM with MCF-7 [11] (ref Novais et al. [17]). For the same molecule, in the series on HFF-1 and HPAEpiC cells, the “Cytotoxicity in non-tumor cell lines” value was “low cytotoxicity”. In addition, the “Mitotic index (MI)” value in series [14] is given as 29.8 ± 5.6%.
